A short description of series [1]: Phase I clinical study Part 1, single administration, pharmacokinetics and safety. The conditions noted are these: human, plasma, oral; in any dose group, single administration. It counts as in vivo, human. The procedure: Test Example 3-1 Phase I Clinical Study
All studies were conducted based on Good Clinical Practice (GCP). The phase I clinical study was composed of Part 1 to Part 7, and in Part 1, the safety, tolerability, and pharmacokinetics were confirmed when the fumaric acid cocrystal Form I crystal of the compound represented by Formula (I) was administered once and when it was administered repeatedly.
The subjects who were determined to be eligible by the screening examination were randomly assigned to either the active drug group (see the following table for the dose of the fumaric acid cocrystal Form I crystal of the compound represented by Formula (I)) or the placebo group on the day before the day of administration of the investigational new drug (Day −1). On Day 1, the investigational new drug (active drug or placebo) was administered once in the fasted state.

For series [2] the following is noted: single ascending dose study in healthy Japanese adults; cited from earlier work.

One may read the half-life as the time needed for the level to fall by half in the phase considered. Higher therefore signals slow loss. In turn, `Cn1cnc(Cn2c(=O)[nH]/c(=N\c3cc4cn(C)nc4cc3Cl)n(Cc3cc(F)c(F)cc3F)c2=O)n1` [compound represented by Formula (I), (6E)-6-[(6-chloro-2-methyl-2H-indazol-5-yl)imino]-3-[(1-methyl-1H-1,2,4-triazol-3-yl)methyl]-1-[(2,4,5-trifluorophenyl)methyl]-1,3,5-triazinane-2,4-dione] returned a half-life in series [1] above 40 h. Besides, the Safety and tolerability result in series [2] was “good safety and tolerability were confirmed”.

The values above are taken from US20250099474A1 (priority 2022, published 2025).
